Measurements as given in the Kinase Knowledgebase extract (Sharma et al. 2016).

Molecular target: EGFR (UniProt P00533)
Experiment: Inhibition of EGFR Kinase Activity

Chain of EGFR (P00533 whole entry, looked up): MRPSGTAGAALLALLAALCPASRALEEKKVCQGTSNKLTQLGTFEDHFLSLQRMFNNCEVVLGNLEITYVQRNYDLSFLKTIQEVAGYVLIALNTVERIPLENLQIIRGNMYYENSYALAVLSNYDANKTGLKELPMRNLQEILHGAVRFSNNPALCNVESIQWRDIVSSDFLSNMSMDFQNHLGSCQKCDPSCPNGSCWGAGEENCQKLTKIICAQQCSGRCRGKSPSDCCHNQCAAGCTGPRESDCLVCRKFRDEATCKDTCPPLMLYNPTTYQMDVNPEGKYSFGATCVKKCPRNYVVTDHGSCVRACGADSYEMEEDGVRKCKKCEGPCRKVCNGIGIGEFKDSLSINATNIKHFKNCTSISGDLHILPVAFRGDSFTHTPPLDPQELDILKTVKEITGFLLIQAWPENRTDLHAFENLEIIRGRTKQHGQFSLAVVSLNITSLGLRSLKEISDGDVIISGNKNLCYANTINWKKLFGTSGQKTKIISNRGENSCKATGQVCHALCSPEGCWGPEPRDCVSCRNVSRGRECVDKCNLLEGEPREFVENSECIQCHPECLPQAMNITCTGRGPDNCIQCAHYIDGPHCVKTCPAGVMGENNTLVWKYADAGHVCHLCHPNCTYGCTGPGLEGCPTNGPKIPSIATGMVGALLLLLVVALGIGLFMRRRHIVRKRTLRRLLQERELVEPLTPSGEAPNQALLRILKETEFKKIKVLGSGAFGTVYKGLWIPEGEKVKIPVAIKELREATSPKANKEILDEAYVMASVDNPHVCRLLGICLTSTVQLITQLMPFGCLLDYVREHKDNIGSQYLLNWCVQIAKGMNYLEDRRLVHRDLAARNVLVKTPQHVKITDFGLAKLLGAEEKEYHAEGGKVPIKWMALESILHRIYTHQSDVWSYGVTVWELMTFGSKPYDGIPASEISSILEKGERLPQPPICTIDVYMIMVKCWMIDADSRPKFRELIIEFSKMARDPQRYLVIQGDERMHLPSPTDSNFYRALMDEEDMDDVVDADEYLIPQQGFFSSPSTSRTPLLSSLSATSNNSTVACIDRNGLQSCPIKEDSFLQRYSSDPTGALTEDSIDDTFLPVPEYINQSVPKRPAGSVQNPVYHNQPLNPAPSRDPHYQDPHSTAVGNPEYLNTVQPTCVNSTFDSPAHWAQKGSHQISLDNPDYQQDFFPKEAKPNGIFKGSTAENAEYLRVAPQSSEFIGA

IC50, < 50 µM:
CC#CC(=O)Nc1cccc(Nc2ncnc(Nc3ccc(OCCO)cc3)n2)c1
C=CCN(c1ccc(F)c(Cl)c1)c1ncnc(Nc2ccc(NC(=O)C=C)cc2)n1
C=CCN(c1ncnc(Nc2cccc(NC(=O)C=C)c2)n1)c1cc(Cl)cc2ccccc12
CC#CC(=O)Nc1cc(Nc2ncnc(N(C)c3ccc4c(cnn4Cc4ccccc4)c3)n2)ccc1OCCCC1CCN(C)CC1
C=CC(=O)Nc1ccc(Nc2ncnc(Nc3cc(Cl)ccc3C)n2)cc1
C=CCN(c1ncnc(Nc2cccc(NC(=O)C#CC)c2)n1)c1cc(Cl)cc2ccccc12
C=CCN(c1cccc(CC(=O)OC)c1)c1ncnc(Nc2cccc(NC(=O)C=C)c2)n1
C=CC(=O)N(OCCCC1CCN(C)CC1)c1cccc(Nc2ncnc(NN3CCCc4ccc(Cl)cc43)n2)c1
C=CC(=O)Nc1cccc(Nc2ncnc(Nc3ccc(OCc4ccccc4)c(Cl)c3)n2)c1
C=CC(=O)Nc1ccc(Nc2ncnc(Nc3cc(OC)c(OC)c(OC)c3)n2)cc1
CC#CC(=O)Nc1cccc(Nc2ncnc(N(C)c3cc(Cl)ccc3C)n2)c1
C=CC(=O)Nc1cc(Nc2ncnc(NN3CCCc4ccc(Cl)cc43)n2)ccc1OCCCN1CCOCC1
C=CC(=O)Nc1ccc(Nc2ncnc(Nc3ccc(OCCO)cc3)n2)cc1
C=CCN(c1ccc(OCc2ccccc2)cc1)c1ncnc(Nc2ccc(NC(=O)C=C)cc2)n1
CC#CC(=O)Nc1cccc(Nc2ncnc(Nc3ccc(OCCC)c(OCCC)c3)n2)c1
C=CC(=O)Nc1cc(Nc2ncnc(Nc3ccc4c(ccn4Cc4ccccc4)c3)n2)ccc1OCCCC1CCN(C)CC1
C=CCN(c1ccc(OCCC)c(OCCC)c1)c1ncnc(Nc2cccc(NC(=O)C#CC)c2)n1
C=CC(=O)Nc1ccc(Nc2ncnc(N(CC)n3c(=O)[nH]c4ccccc43)n2)cc1
C=CC(=O)Nc1ccc(Nc2ncnc(Nc3cccc(C)c3)n2)cc1
C=CC(=O)N(CCCN1CCOCC1)c1cccc(Nc2ncnc(N(C)C3CC3c3ccccc3)n2)c1 (stereo not drawn)
C=CC(=O)Nc1ccc(Nc2ncnc(N(CC)c3cc(OC)c(OC)c(OCCN4CCOCC4)c3)n2)cc1
C=CC(=O)Nc1cc(Nc2ncnc(NN3CCCc4ccc(Cl)cc43)n2)ccc1OCCCC1CCN(C)CC1
C=CC(=O)Nc1cccc(Nc2ncnc(N(C)c3ccc4c(cnn4Cc4ccccn4)c3)n2)c1
C=CC(=O)Nc1ccc(Nc2ncnc(Nc3ccc(OCc4ccccc4)c(Cl)c3)n2)cc1
C=CCN(c1ccc2c(cnn2Cc2ccccc2)c1)c1ncnc(Nc2cccc(NC(=O)C#CC)c2)n1
CC#CC(=O)Nc1cc(Nc2ncnc(N(C)c3ccc(OCc4ccccc4)c(Cl)c3)n2)ccc1OCCCC1CCN(C)CC1
C=CC(=O)Nc1cc(Nc2ncnc(Nc3cccc(Cl)c3)n2)ccc1OCCCC1CCN(C)CC1
C#Cc1cccc(Nc2ncnc(Nc3cccc(NC(=O)C=C)c3)n2)c1
